Measurements as given in US20260224714A1, “CYCLING LYSOSOMAL TARGETING ANTIBODY CONJUGATES” (Lycia Therapeutics, Inc., priority 2023, published 2026).

How the values were obtained:
Format in all cases: cell-based
[1] = test system: Alexa Fluor647 labelled human IgE; assay: Uptake assay: internalization of Alexa Fluor 647 labelled IgE in wild type HepG2 cells (Example 6); conditions: equimolar conjugate and AF647 IgE, 2 hours, median cellular AF647 intensity by flow cytometry, normalized to unconjugated parent protein
Procedure: (§1) The following experiments were performed with HepG2 hepatocellular carcinoma cells, grown in Eagle's Minimal Essential Media (EMEM) supplemented with 10% FBS and penicillin/streptomycin.
(§2) HepG2 cells (25,000) were plated in 96-well plates 48 hours before the experiment was performed. On the day of the experiment, indicated the conjugate was mixed with an equimolar stock of Alexa Fluor647 labelled human IgE (Enzo Life Sciences, BPD-DIA-HE 1) in fresh EMEM as a 600 nM stock. The precomplexed conjugate:IgE mixture was incubated at room temperature for 30 minutes. During the precomplexing step, media from HepG2 was removed, and 40 ul of EMEM with 1/100 Fc Receptor Blocking Solution (Biolegend Human TruStain FcX, 422302) was added. Cells incubated in the receptor blocking solution for 10 minutes while making serial dilutions (1:3) of conjugate:IgE stock solution in EMEM. 40 ul of the conjugate:IgE mixture in EMEM was then added to cells (six dilutions, with final concentrations ranging from 300 nM to 1.23 nM) for 2 hours before washing with DPBS and detaching with 0.25% Trypsin/EDTA. Cells were pelleted in 96-well conical bottom plates, washed once with FACS Buffer with BSA (Rockland Immunochemicals), and resuspended in FACS Buffer with BSA. Uptake of fluorescently labelled IgE was measured by analyzing median cellular AF647 intensity by flow cytometry.
(§3) Cells were incubated with equimolar ratio of conjugate and AF647 IgE at indicated concentrations, with data normalized to unconjugated parent protein (Oma S35HWY57H-LC).

[2] = test system: Alexa Fluor647 labelled human IgE; assay: Uptake assay: internalization of Alexa Fluor 647 labelled IgE in ASGPR1/2 KO HepG2 cells (Example 6); conditions: equimolar conjugate and AF647 IgE, normalized to unconjugated parent protein
Procedure: as §1, §2, §3

[3] = test system: LysoLight-labelled human IgE; assay: Lysosomal degradation of LysoLight-labelled IgE in HepG2 cells, live cell imaging (Example 7); conditions: equimolar conjugate:LysoLight IgE, area under the curve of deep red fluorescence over three days, normalized to unconjugated parent protein
Procedure: as §1
HepG2 cells (15,000) were plated in 96-well plates 72 hours before performing the experiment. On the day of the experiment, indicated the conjugate was diluted in fresh EMEM and mixed with an equimolar stock of LysoLight-labelled human IgE (Enzo Life Sciences, BPD-DIA-HE1), at 200 nM of each compound. The precomplexed conjugate:IgE mixture was incubated at room temperature for 30 minutes. During the precomplexing step, media from HepG2 was removed, and 40 ul of EMEM with 1/100 Fc Receptor Blocking Solution (Biolegend Human TruStain FcX, 422302) was added. Cells incubated in the receptor blocking solution for 10 minutes while making serial dilutions (1:3) of conjugate:IgE stock solution in EMEM. 40 ul of the conjugate:IgE mixture in EMEM was then added to cells (five dilutions, with final concentrations ranging from 100 nM to 1.23 nM). Cells were placed in an IncuCyte Live-Cell Analysis System (Sartorius) for long term live cell imaging analysis (10× magnification, 3 images per well). One hour after addition of compound, image acquisition to measure red fluorescence from the LysoLight probe was started, with further Images collected every hour for 72 hours. Fluorescence of the LysoLight probe only occurs when cleaved by lysosomal cathepsin proteases, confirming lysosomal delivery and degradation of target. After 72 hours, mean red fluorescence was measured for each time point, and the area under the curve of fluorescence overtime was used to measure total degradation over the 3-day time period.

HepG2 cells = assay: Externalization of conjugates from a cell following internalization (cycling), high-throughput format (Example 11); conditions: 50 nM conjugate 1 hour, stringent washes, Alexa Fluor 647-labelled a-human IgG 1 hour, FACS, normalized to unconjugated parent protein, average of two replicate wells
Procedure: as §1
The method was also adapted to a high-throughput format. In this assay, 25,000 HepG2 cells were plated in 96-well plates 48 hours before performing the experiment. The day of the experiment, cells were incubated with conjugate at indicated concentrations for 1 hour. Cells were then placed on ice to prevent trafficking/recycling during wash steps, and washed once with DPBS, once with sodium acetate buffer (20 mM, 150 mM NaCl, pH 5.2), once with Earle's Balanced Salt Solution (EBSS) adjusted to pH 2.5, and once again with DPBS, to remove conjugate from media and cell surface. Afterwards, 100 ul of prewarmed (to 37° C.) EMEM with 1 μg/ml of human a-IgG antibody conjugated to Alexa Fluor647 fluorophores was added to cells for 1 hour before washing with DPBS and detaching with 0.25% Trypsin/EDTA. Cells were pelleted in 96-well conical bottom plates, washed once with FACS Buffer with BSA (Rockland Immunochemicals), resuspended FACS Buffer with BSA and median AF647 intensity was analyzed by flow cytometry. The amount of conjugate capable of cycling to the cell surface (being externalized from the cell) and binding to the Alexa Fluor647 labelled α-IgG was measured by analyzing median cellular 647 fluorescence intensity by flow cytometry. […]. Reported values are the average of the values of two replicate wells.

human IgE = assay: Degradation of initial and subsequent dose of target in HepG2 cells (Example 12, Table 30); conditions: normalized to unconjugated; for Normalized Fluorescence Post Wash Median Green: after wash, probe-conjugated IgE added for 4 hours, subsequent dose of target; for Normalized Fluorescence Precomplex Median Deep Red: precomplexed equimolar conjugate:IgE (cathepsin-cleavable quenched fluorescent probe) added for 2 hours, initial dose of target
Procedure: as §1
HepG2 cells (25,000) were plated in 96-well plates 48 hours before performing the experiment. On the day of the experiment, indicated conjugate was diluted in fresh EMEM as a 2× stock, and mixed with an equimolar stock of human IgE (Enzo Life Sciences, BPD-DIA-HE 1) conjugated to a cathepsin-cleavable quenched fluorescent probe. The precomplexed conjugate:IgE mixture was incubated at 37 degrees Celsius for 30 minutes. Media from HepG2 was removed, and conjugate:IgE mixture in EMEM was added to cells for 2 hours. Cells were then placed on ice to prevent trafficking/recycling during wash steps, and washed once with DPBS, once with sodium acetate buffer (20 mM, 150 mM NaCl, pH 5.2), once with Earle's Balanced Salt Solution (EBSS) adjusted to pH 2.5, and once again with DPBS, to remove conjugate from media and cell surface. Afterwards, 100 ul of prewarmed (to 37 degrees Celsius) EMEM with cathepsin-cleavable quenched fluorescent probe-conjugated IgE was added to cells for 4 hours before washing with DPBS and detaching with 0.25% Trypsin/EDTA. Cells were pelleted in 96-well conical bottom plates, washed once with FACS Buffer with BSA (Rockland Immunochemicals), resuspended FACS Buffer with BSA and median 488 and 647 intensity was analyzed by flow cytometry. Delivery of labelled IgE to the lysosome and subsequent cleavage of initial precomplexed IgE was measured by analyzing median cellular 647 intensity, while cleavage of the post wash addition of IgE, which should only be degraded by recycling conjugates which released the first round of precomplexed IgE, was analyzed by median cellular 488 intensity. HepG2 cells were treated with human IgE (Enzo Life Sciences, BPD-DIA-HE1) conjugated to a cathepsin-cleavable quenched deep red (647) fluorescent probe precomplexed to conjugate fortwo hours, then washed, and fresh media with IgE conjugated to a green (488) cathepsin-cleavable fluorescent probe was then added without conjugate. […] Fluorescence values were measured by FACS and normalized to unconjugated parent protein. Reported values are the average of the values of two replicate wells.

recombinant IgE = assay: Degradation of super-stoichiometric levels of target in HepG2 cells (Example 13, Table 31); conditions: 1 nM conjugate and 25 nM IgE for three days, (A-B)/C IgE depleted relative to conjugate, average of two replicate wells
Procedure: as §1
For evaluation of compounds in a high throughput format, 25,000 HepG2 cells were plated in a 96-well plate. The following day, 50 ul of 1 nM conjugate and 25 nM recombinant IgE in EMEM were added to the cells. 50 ul of the initial stock of conjugate:IgE was saved to quantify for an initial time point. Three days later, the media was collected from cells, and both initial and 72 hour time points were quantified for IgE concentration using the MSD assay.
HepG2 cells were incubated in media containing 1 nM conjugate and 25 nM IgE for three days. Concentrations of IgE at beginning and end of experiment were quantified by ELISA-based assay. Molar equivalents of IgE depleted relative to conjugate added are shown, calculated as (A-B)/C, where A is the initial concentration of IgE, B is the concentration of IgE at day three, and C is the concentration of conjugate. Reported values are the average of the values of two replicate wells.

## CC(=O)N[C@@H]1[C@@H](O)[C@@H](O)[C@@H](CO)O[C@@H]1CCCOCCOCCNC(=O)NCCCC(CCCNC(=O)NCCOCCOCCC[C@H]1O[C@H](CO)[C@H](O)[C@H](O)[C@H]1NC(C)=O)(CCCNC(=O)NCCOCCOCCC[C@H]1O[C@H](CO)[C@H](O)[C@H](O)[C@H]1NC(C)=O)NC(=O)NCCOCCOCCOCCNC(=O)c1ccc(N2C(=O)C=CC2=O)cc1 [Compound 2314]
[1]
  Normalized Fluorescence 3.7 nM WT: 69.0
  Normalized Fluorescence 100 nM WT: 265.7
[2]
  Normalized Fluorescence 100 nM ASGPR KO: 1.0
[3]
  Normalized Fluorescence 3.7 nM: 13.9
  Normalized Fluorescence 100 nM: 3.9
HepG2 cells
  Normalized Fluorescence: 40.5
Human IgE
  Normalized Fluorescence Post Wash Median Green: 3.5
  Normalized Fluorescence Precomplex Median Deep Red: 3.6
Recombinant IgE
  Average Degradation (Molar equivalents): 6.5 Molar equivalents

## CC(=O)N[C@H]1[C@H](OCCCCC(=O)NCCCNC(=O)CCOCC(COCCC(=O)NCCCNC(=O)CCCCO[C@@H]2O[C@H](CO)[C@H](O)[C@H](O)[C@H]2NC(C)=O)(COCCC(=O)NCCCNC(=O)CCCCO[C@@H]2O[C@H](CO)[C@H](O)[C@H](O)[C@H]2NC(C)=O)NC(=O)CCCCCCCCCCC(=O)NCCN2C(=O)C=CC2=O)O[C@H](CO)[C@H](O)[C@@H]1O [Compound 2401-C]
[1]
  Normalized Fluorescence 3.7 nM WT: 10.3
  Normalized Fluorescence 100 nM WT: 44.7
[2]
  Normalized Fluorescence 100 nM ASGPR KO: 1.2
[3]
  Normalized Fluorescence 3.7 nM: 1.1
  Normalized Fluorescence 100 nM: 1.8
HepG2 cells
  Normalized Fluorescence: 3.2
Human IgE
  Normalized Fluorescence Post Wash Median Green: 1.2
  Normalized Fluorescence Precomplex Median Deep Red: 1.7
Recombinant IgE
  Average Degradation (Molar equivalents): −1.0 Molar equivalents

## CC(=O)N[C@@H]1[C@@H](O)[C@@H](O)[C@@H](CO)O[C@@H]1CCCOCCOCCNC(=O)NCCCC(CCCNC(=O)NCCOCCOCCC[C@H]1O[C@H](CO)[C@H](O)[C@H](O)[C@H]1NC(C)=O)(CCCNC(=O)NCCOCCOCCC[C@H]1O[C@H](CO)[C@H](O)[C@H](O)[C@H]1NC(C)=O)NC(=O)NCOCCOCCOCCNS(=O)(=O)c1ccc(N2C(=O)C=CC2=O)cc1 [Compound 2313]
[1]
  Normalized Fluorescence 3.7 nM WT: 89.1
  Normalized Fluorescence 100 nM WT: 259.1
[2]
  Normalized Fluorescence 100 nM ASGPR KO: 1.0
[3]
  Normalized Fluorescence 3.7 nM: 13.0
  Normalized Fluorescence 100 nM: 4.1
HepG2 cells
  Normalized Fluorescence: 36.4
Human IgE
  Normalized Fluorescence Post Wash Median Green: 3.2
  Normalized Fluorescence Precomplex Median Deep Red: 3.5
Recombinant IgE
  Average Degradation (Molar equivalents): 7.5 Molar equivalents

## O=C(CCOCCOCCOCCNS(=O)(=O)c1ccc(N2C(=O)C=CC2=O)cc1)NC(CCCNC(=O)NCCOCCOCCOC[C@H]1CN([C@H]2CO[C@H](CO)[C@H](O)[C@@H]2O)C(=O)O1)(CCCNC(=O)NCCOCCOCCOC[C@H]1CN([C@H]2CO[C@H](CO)[C@H](O)[C@@H]2O)C(=O)O1)CCCNC(=O)NCCOCCOCCOC[C@H]1CN([C@H]2CO[C@H](CO)[C@H](O)[C@@H]2O)C(=O)O1 [Compound 2324]
[1]
  Normalized Fluorescence 3.7 nM WT: 39.2
  Normalized Fluorescence 100 nM WT: 207.4
[2]
  Normalized Fluorescence 100 nM ASGPR KO: 1.2
[3]
  Normalized Fluorescence 3.7 nM: 5.8
  Normalized Fluorescence 100 nM: 2.6
HepG2 cells
  Normalized Fluorescence: 32.2
Human IgE
  Normalized Fluorescence Post Wash Median Green: 2.9
  Normalized Fluorescence Precomplex Median Deep Red: 3.2
Recombinant IgE
  Average Degradation (Molar equivalents): 5.2 Molar equivalents
